Laboratory results published in patent publication US20050032873A1, “3-Amino chroman and 2-amino tetralin derivatives” (Wyeth, priority 2003, published 2005).
Like-named read-outs stand apart in the source and are kept apart here.

What was measured:
serotonin transporter = biological target: T1, serotonin transporter (Rattus norvegicus, UniProt P31652); assay: 5-HT transporter affinity: displacement of 3H-paroxetine from male rat cortical membranes; format: binding; details: displacement of 3H-paroxetine, male rat cortical membranes
T1 construct: displace ^3H-paroxetine from male rat cortical membranes; from tissue; host or cells: male rat cortical membranes

[1] = biological target: T2, cloned human 5-HT1A receptors (Homo sapiens, UniProt P08908); assay: 35S-GTPγS binding assay, 5-HT1A function; format: biochemical; details: for EC50: agonist potency; for IC50: antagonist potency, reversal of 8-OH-DPAT, read-out: 5-HT1A Function GTPγS IC50
T2 construct: expressed in transfected cells
T2 sequence (P08908 1-422): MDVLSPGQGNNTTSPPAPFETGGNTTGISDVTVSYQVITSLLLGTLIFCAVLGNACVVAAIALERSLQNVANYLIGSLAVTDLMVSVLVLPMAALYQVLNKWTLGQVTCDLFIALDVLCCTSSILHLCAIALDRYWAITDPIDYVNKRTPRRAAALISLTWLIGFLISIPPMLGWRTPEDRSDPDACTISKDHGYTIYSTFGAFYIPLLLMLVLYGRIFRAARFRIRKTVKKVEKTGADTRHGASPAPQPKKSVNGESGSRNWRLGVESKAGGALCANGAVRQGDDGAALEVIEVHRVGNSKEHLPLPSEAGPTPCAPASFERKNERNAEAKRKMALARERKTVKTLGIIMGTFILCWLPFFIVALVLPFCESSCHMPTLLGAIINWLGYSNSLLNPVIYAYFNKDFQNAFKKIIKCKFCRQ

5-HT1A receptor = biological target: T3, 5-HT1A receptor (Homo sapiens, UniProt P08908); assay: 5-HT1A receptor affinity: displacement of [3H] 8-OH-DPAT; format: binding; parameters: expressed in transfected cells; details: for inhibition at 1 µM: read-out: 5-HT1A Receptor Affinity, % @ 1 μM; for Ki: displacement of [3H] 8-OH-DPAT, CHO cells stably transfected with human 5-HT1A receptors, read-out: 5-HT1A Receptor Affinity Ki
T3 sequence (P08908 1-422): T2 sequence (P08908 1-422)

[2] = 5-HT Transporter Affinity Ki (nM)
[3] = maximum stimulatory effect, in brackets after EC50, read-out: 5-HT1A Function GTPγS (Emax)
[4] = read-out: 5-HT Transporter Affinity Ki
[5] = maximum inhibitory effect, in brackets after IC50
[6] = maximum inhibitory effect, in brackets after IC50, read-out: 5-HT1A Function GTPγS (Imax)

T1 sequence (P31652 whole entry): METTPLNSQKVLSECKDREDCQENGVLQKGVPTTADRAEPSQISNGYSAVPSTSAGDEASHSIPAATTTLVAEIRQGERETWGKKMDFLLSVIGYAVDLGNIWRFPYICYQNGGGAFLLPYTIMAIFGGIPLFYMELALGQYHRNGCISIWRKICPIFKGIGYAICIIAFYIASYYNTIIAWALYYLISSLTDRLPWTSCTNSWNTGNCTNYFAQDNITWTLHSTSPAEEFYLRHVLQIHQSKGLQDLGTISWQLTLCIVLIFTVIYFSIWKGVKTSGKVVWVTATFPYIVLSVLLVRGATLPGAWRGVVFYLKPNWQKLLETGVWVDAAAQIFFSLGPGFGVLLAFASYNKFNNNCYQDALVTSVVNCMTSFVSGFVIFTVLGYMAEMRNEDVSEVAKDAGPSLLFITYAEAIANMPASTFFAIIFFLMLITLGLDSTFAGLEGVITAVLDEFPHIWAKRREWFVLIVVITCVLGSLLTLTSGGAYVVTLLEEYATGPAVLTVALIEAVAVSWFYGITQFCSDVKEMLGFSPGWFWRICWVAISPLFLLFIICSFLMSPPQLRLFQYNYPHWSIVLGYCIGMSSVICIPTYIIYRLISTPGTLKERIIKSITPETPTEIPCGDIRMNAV

| SMILES | Ki (serotonin transporter; [2]) [nM] | EC50 [1] [nM] | Emax [1, 3] [%] | inhibition at 1 µM (5-HT1A receptor) [%] | Ki (serotonin transporter; [4]) [nM] | IC50 [1] [nM] | 5-HT1A Function GTPγS (Imax) [1, 5] [%] | Emax [1, 6] [%] | Ki (5-HT1A receptor) [nM] |
| --- | --- | --- | --- | --- | --- | --- | --- | --- | --- |
| COc1cccc2c1CC(N[C@H]1CC[C@@H](c3c[nH]c4ccc(C#N)cc43)CC1)CO2 (relative stereo) [Compound 180a, 3-[(1,4-cis)-4-(5-Methoxy-chroman-3-ylamino)-cyclohexyl]-1H-indole-5-carbonitrile] | 13 | 4230 | 100 | 19 | – | – | – | – | – |
| NC(=O)c1ccc(F)c2c1CC(N(CC1CCc3[nH]c4ccc(F)cc4c3C1)C1CCC1)CO2 (single isomer, unassigned; (-)) [Compound 174a, (−)-3-{cyclobutyl[(6-fluoro-2,3,4,9-tetrahydro-1H-carbazol-3-yl)methyl]amino}-8-fluorochromane-5-carboxamide] | – | – | – | 49 | 855 | 8000 | 50 | – | – |
| COc1cccc2c(CCN(C3CCC3)C3COc4c(F)ccc(C(N)=O)c4C3)coc12 (stereo not shown) [Compound 159, 3-{cyclobutyl[2-(7-methoxy-1-benzofuran-3-yl)ethyl]amino}-8-fluorochromane-5-carboxamide] | – | – | – | 30 | 149 | 5000 | – | 25 | – |
| NC(=O)c1ccc(F)c2c1CC(NCCc1c[nH]c3ccc(F)cc13)CO2 (stereo not shown) [Compound 75, 8-fluoro-3-{[2-(5-fluoro-1H-indol-3-yl)ethyl]amino}chromane-5-carboxamide] | – | – | – | 0 | 1030 | 2150 | – | 40 | – |
| NC(=O)c1ccc(F)c2c1OCC(N(CCCc1c[nH]c3ccc(F)cc13)CC1CC1)C2 (stereo not shown) [Compound 121, 3-{(cyclopropylmethyl)[3-(5-fluoro-1H-indol-3-yl)propyl]amino}-5-fluorochromane-8-carboxamide] | – | 3820 | 70 | – | 41.8 | – | – | – | 67.7 |
| CC(CCc1c[nH]c2c(F)cc(F)cc12)N(CC1CC1)C1COc2c(F)ccc(C(N)=O)c2C1 (single isomer, unassigned) [Compound 154a, 3-{(cyclopropylmethyl)[3-(5,7-difluoro-1H-indol-3-yl)-1-methylpropyl]amino}-8-fluorochromane-5-carboxamide] | – | – | – | – | 65 | 235 | 100 | – | 6.35 |
| NC(=O)c1ccc(F)c2c1OCC(NCCCCc1c[nH]c3ccc(F)cc13)C2 (stereo not shown) [Compound 123, 5-fluoro-3-{[4-(5-fluoro-1H-indol-3-yl)butyl]amino}chromane-8-carboxamide] | – | 2260 | 100 | – | 3.81 | – | – | – | 280 |
| NC(=O)c1ccc(F)c2c1CC(N(CCCCn1ccc3cc(F)ccc31)C1CCC1)CO2 (stereo not shown) [Compound 200, 3-{Cyclobutyl[4-(5-fluoro-1H-indol-1-yl)butyl]amino}-8-fluorochromane-5-carboxamide] | – | – | – | – | 241 | 1110 | – | 100 | 10.8 |
| NC(=O)c1ccc(F)c2c1CC(N(CCCCn1ccc3cccc(F)c31)CC1CC1)CO2 (stereo not shown) [Compound 191, 3-{(Cyclopropylmethyl)[4-(7-fluoro-1H-indol-1-yl)butyl]amino}-8-fluorochromane-5-carboxamide] | – | – | – | – | 38.7 | 204 | – | 74 | 19.3 |
| CC(C1CC1)N(CCCc1c[nH]c2ccc(F)cc12)C1COc2c(F)ccc(C(N)=O)c2C1 (stereo not shown) [Compound 6, 3-{(1-cyclopropylethyl)[3-(5-fluoro-1H-indol-3-yl)propyl]amino}-8-fluorochromane-5-carboxamide] | – | – | – | 30 | 18.9 | 4840 | – | 87 | – |
| NC(=O)c1ccc(F)c2c1CC(NCCCCc1c[nH]c3ccc(F)cc13)CO2 (stereo not shown) [Compound 79, 8-fluoro-3-{[4-(5-fluoro-1H-indol-3-yl)butyl]amino}chromane-5-carboxamide] | – | – | – | 43 | 4.46 | 2660 | – | 63 | – |
| NC(=O)c1ccc(F)c2c1C[C@@H](NCC1CCc3c([nH]c4ccc(F)cc34)C1)CO2 (single isomer, unassigned; (+)) [Compound 179a] | – | – | – | 48 | 33.2 | 9030 | – | 100 | – |
| COC(=O)c1ccc(F)c2c1C[C@H](N(CCCCc1c[nH]c3ccc(F)cc13)C1CCC1)CO2 [Compound 58a, Methyl (3S)-3-{cyclobutyl[4-(5-fluoro-1H-indol-3-yl)butyl]amino}-8-fluorochromane-5-carboxylate] | – | – | – | 0 | 46.6 | 1960 | – | 25 | – |
| COc1cccc2c1CC(N[C@H]1CC[C@H](c3c[nH]c4ccc(C#N)cc43)CC1)CO2 (relative stereo) [Compound 180b, 3-[(1,4-trans)-4-(5-Methoxy-chroman-3-ylamino)-cyclohexyl]-1H-indole-5-carbonitrile] | 2.46 | 925 | 50.5 | 20 | – | – | – | – | – |
| O=C(NC1CCCC1)c1ccc(F)c2c1CC(N(CCCc1c[nH]c3ccc(F)cc13)C1CCC1)CO2 (stereo not shown) [Compound 66, 3-{cyclobutyl[3-(5-fluoro-1H-indol-3-yl)propyl]amino}-N-cyclopentyl-8-fluorochromane-5-carboxamide] | – | 7500 | 38 | 41 | 5.65 | – | – | – | – |
| COc1cccc2c1CC(N[C@H]1CC[C@H](c3c[nH]c4ccc(F)cc43)CC1)CO2 (relative stereo) [Compound 181b, trans-N-[4-(5-fluoro-1H-indol-3-yl)cyclohexyl]-5-methoxychroman-3-amine] | – | – | – | 46 | 3.07 | 115 | – | 44.6 | – |
| NC(=O)c1ccc(F)c2c1OCC(NCCCc1c[nH]c3ccc(F)cc13)C2 (stereo not shown) [Compound 119, 5-fluoro-3-{[3-(5-fluoro-1H-indol-3-yl)propyl]amino}chromane-8-carboxamide] | – | 3160 | 100 | – | 14.2 | – | – | – | 36.9 |
| COc1cccc2c1CC(N[C@H]1CC[C@@H](c3c[nH]c4ccc(F)cc43)CC1)CO2 (relative stereo) [Compound 181a, cis-N-[4-(5-fluoro-1H-indol-3-yl)cyclohexyl]-5-methoxychroman-3-amine] | – | 40000 | 79.4 | 37 | 26 | – | – | – | – |
| O=C(NC1CCCCC1)c1ccc(F)c2c1CC(N(CCCc1c[nH]c3ccc(F)cc13)C1CCC1)CO2 (stereo not shown) [Compound 67, 3-{cyclobutyl[3-(5-fluoro-1H-indol-3-yl)propyl]amino}-N-cyclohexyl-8-fluorochromane-5-carboxamide] | – | – | – | 44 | 19.8 | 1970 | – | 76 | – |
| NC(=O)c1ccc(F)c2c1CC(N(CCCCn1ccc3cccc(F)c31)C1CCC1)CO2 (stereo not shown) [Compound 192, 3-{Cyclobutyl[4-(7-fluoro-1H-indol-1-yl)butyl]amino}-8-fluorochromane-5-carboxamide] | – | – | – | – | 39.3 | 1750 | – | 86 | 39.9 |
| NC(=O)c1ccc(F)c2c1OCC(NCCCc1c[nH]c3c(F)cc(F)cc13)C2 (stereo not shown) [Compound 128, 3-{[3-(5,7-difluoro-1H-indol-3-yl)propyl]amino}-5-fluorochromane-8-carboxamide] | – | 608 | 59 | 47 | 54.5 | – | – | – | – |
| CCNC(=O)c1cccc2c1CC(N(CCCc1c[nH]c3c(F)cc(F)cc13)C1CCC1)CO2 (stereo not shown) [Compound 139, 3-{cyclobutyl[3-(5,7-difluoro-1H-indol-3-yl)propyl]amino}-N-ethylchromane-5-carboxamide] | – | 180 | 81 | – | 3.9 | – | – | – | 4.83 |
| CCCCCN(CCCc1c[nH]c2ccc(F)cc12)C1COc2c(F)ccc(C(N)=O)c2C1 (stereo not shown) [Compound 71, 8-fluoro-3-[[3-(5-fluoro-1H-indol-3-yl)propyl](pentyl)amino]chromane-5-carboxamide] | – | – | – | 44 | 212 | 8000 | – | 13 | – |
| CC(CCc1c[nH]c2c(F)cc(F)cc12)N(CC1CC1)C1COc2c(F)ccc(C(N)=O)c2C1 (single isomer, unassigned) [Compound 154d, 3-{(cyclopropylmethyl)[3-(5,7-difluoro-1H-indol-3-yl)-1-methylpropyl]amino}-8-fluorochromane-5-carboxamide] | – | – | – | 2 | 4.81 | 7070 | 71 | – | – |
| CNC(=O)c1ccc(F)c2c1CC(NCCCc1c[nH]c3ccc(F)cc13)CO2 (stereo not shown) [Compound 88, 8-fluoro-3-{[3-(5-fluoro-1H-indol-3-yl)propyl]amino}-N-methylchromane-5-carboxamide] | – | 1780 | 94 | – | 12.2 | – | – | – | 54.6 |
